Results as given in publication PMC7025694 (Acta Orthopaedica, 2018).

Format: in vivo, pig

## CN[C@H](CC(C)C)C(=O)N[C@H]1C(=O)N[C@@H](CC(N)=O)C(=O)N[C@H]2C(=O)N[C@H]3C(=O)N[C@H](C(=O)N[C@H](C(=O)O)c4cc(O)cc(O)c4-c4cc3ccc4O)[C@H](O)c3ccc(c(Cl)c3)Oc3cc2cc(c3O[C@@H]2O[C@H](CO)[C@@H](O)[C@H](O)[C@H]2O[C@H]2C[C@](C)(N)[C@H](O)[C@H](C)O2)Oc2ccc(cc2Cl)[C@H]1O [vancomycin]
Intervertebral disc, pig, 1,000 mg i.v. over 100 min, sampling 8 h
  time to a mean MIC of 8 µg/mL: could not be reached
Plasma (unbound), pig, 1,000 mg i.v. single dose over 100 min, mean (95% CI)
  Tmax, time to Cmax: 75 (61–89) min
